Data: ChEMBL document CHEMBL5143690, “Identification of nitrofuranylchalcone tethered benzoxazole-2-amines as potent inhibitors of drug resistant Mycobacterium tuberculosis demonstrating bactericidal efficacy” (Bioorg Med Chem, 2022)
In brackets after ≈: the same amount, converted by molar mass.

Experiments:
Type in all cases: functional
[1] = tested on: Mycobacterium tuberculosis; assay: Antimycobacterial activity against ethambutol-resistant Mycobacterium tuberculosis H37Rv ATCC 35837 assessed as inhibition of bacterial growth incubated for 48 hrs by resazurin microtitre assay
[2] = tested on: Mycobacterium tuberculosis; assay: Antimycobacterial activity against isoniazid-resistant Mycobacterium tuberculosis H37Rv ATCC 35822 assessed as inhibition of bacterial growth incubated for 48 hrs by broth microdilution assay
[3] = tested on: Mycobacterium tuberculosis; assay: Antimycobacterial activity against rifampicin-resistant Mycobacterium tuberculosis H37Rv ATCC 35838 assessed as inhibition of bacterial growth incubated for 48 hrs by resazurin microtitre assay
[4] = tested on: Mycobacterium tuberculosis; assay: Antimycobacterial activity against Streptomycin-resistant Mycobacterium tuberculosis H37Rv ATCC 35820 assessed as inhibition of bacterial growth incubated for 48 hrs by resazurin microtitre assay

O=C(/C=C/c1ccc([N+](=O)[O-])o1)c1ccc(Nc2nc3ccccc3o2)cc1
MIC [1]: 0.03 µg/mL (≈ 0.0799 µM)
MIC [2]: 0.06 µg/mL (≈ 0.16 µM)
MIC [3]: 0.03 µg/mL (≈ 0.0799 µM)
MIC [4]: 0.12 µg/mL (≈ 0.32 µM)

Cc1ccc2oc(Nc3ccc(C(=O)/C=C/c4ccc([N+](=O)[O-])o4)cc3)nc2c1
MIC [1]: 0.06 µg/mL (≈ 0.154 µM)
MIC [2]: 0.12 µg/mL (≈ 0.308 µM)
MIC [3]: 0.03 µg/mL (≈ 0.077 µM)
MIC [4]: 0.06 µg/mL (≈ 0.154 µM)

O=C(/C=C/c1ccc([N+](=O)[O-])o1)c1ccc(Nc2nc3cc(Cl)ccc3o2)cc1
MIC [1]: 0.03 µg/mL (≈ 0.0732 µM)
MIC [2]: 0.06 µg/mL (≈ 0.146 µM)
MIC [3]: 0.03 µg/mL (≈ 0.0732 µM)
MIC [4]: 0.06 µg/mL (≈ 0.146 µM)

O=C(/C=C/c1ccc([N+](=O)[O-])o1)c1ccc(Nc2nc3cc([N+](=O)[O-])ccc3o2)cc1
MIC [1]: 0.06 µg/mL (≈ 0.143 µM)
MIC [2]: 0.25 µg/mL (≈ 0.595 µM)
MIC [3]: 0.03 µg/mL (≈ 0.0714 µM)
MIC [4]: 0.12 µg/mL (≈ 0.285 µM)

O=C(/C=C/c1ccc([N+](=O)[O-])o1)c1cccc(Nc2nc3ccccc3o2)c1
MIC [1]: 0.06 µg/mL (≈ 0.16 µM)
MIC [2]: 0.25 µg/mL (≈ 0.666 µM)
MIC [3]: 0.03 µg/mL (≈ 0.0799 µM)
MIC [4]: 0.12 µg/mL (≈ 0.32 µM)

CC[C@@H](CO)NCCN[C@@H](CC)CO [ETHAMBUTOL]
MIC [1]: 32 µg/mL (≈ 157 µM)
MIC [2]: 1 µg/mL (≈ 4.89 µM)
MIC [3]: 1 µg/mL (≈ 4.89 µM)
MIC [4]: 1 µg/mL (≈ 4.89 µM)

NNC(=O)c1ccncc1 [ISONIAZID]
MIC [1]: 0.03 µg/mL (≈ 0.219 µM)
MIC [2]: > 64 µg/mL
MIC [3]: 0.03 µg/mL (≈ 0.219 µM)
MIC [4]: 0.03 µg/mL (≈ 0.219 µM)

CO[C@H]1/C=C/O[C@@]2(C)Oc3c(C)c(O)c4c(O)c(c(/C=N/N5CCN(C)CC5)c(O)c4c3C2=O)NC(=O)/C(C)=C\C=C\[C@H](C)[C@H](O)[C@@H](C)[C@@H](O)[C@@H](C)[C@H](OC(C)=O)[C@@H]1C [RIFAMPIN]
MIC [1]: 0.03 µg/mL (≈ 0.0365 µM)
MIC [2]: 0.03 µg/mL (≈ 0.0365 µM)
MIC [3]: 64 µg/mL (≈ 77.8 µM)
MIC [4]: 0.03 µg/mL (≈ 0.0365 µM)

CN[C@@H]1[C@H](O[C@H]2[C@H](O[C@H]3[C@H](O)[C@@H](O)[C@H](N=C(N)N)[C@@H](O)[C@@H]3N=C(N)N)O[C@@H](C)[C@]2(O)C=O)O[C@@H](CO)[C@H](O)[C@H]1O [STREPTOMYCIN]
MIC [1]: 1 µg/mL (≈ 1.72 µM)
MIC [2]: 1 µg/mL (≈ 1.72 µM)
MIC [3]: 1 µg/mL (≈ 1.72 µM)
MIC [4]: > 64 µg/mL
